Reference: patent US7816319B2, “Methods and products for manipulating uncoupling protein expression” (University of Vermont and State Agricultural College, priority 1999, dated 2010)

Legend:
L1210 DDP = assay: Fas expression after treatment with staurosporin or adriamycin; type: cell-based
Source text: (§1) 4. Treatment of L1210 DDP cells with staurosporin restores Fas expression and susceptibility to drug-induced apoptosis: L1210, but not L1210 DDP, undergo apoptotic cell death. We treated L1210 or L1210 DDP cells with the staurosporin, which inhibits protein kinase C and increases mitochondrial membrane potential, or an anti-cancer agent to which both cells are sensitive, adriamycin. Fas expression was increased or induced on both L1210 and L1210 DDP, respectively, in the presence of staurosporin or adriamycin. The L1210 DDP changed morphologically and began to divide rapidly, changes which appeared to correspond with a reversion back to the phenotype of the L1210 cells.

L1210 [1] = assay: as above; type: cell-based
Source text: as §1

[2] = tested on: Fas deficient lymphocytes; assay: Methotrexate-induced apoptosis in splenic lymphocytes, viability by flow cytometry and trypan blue; type: cell-based, mice; conditions: splenocytes of C57BL/6 lpr or gld vs wild type; 5×10^−8 M methotrexate, 18 or 32 hours
Experimental: 8. Fas Deficient Lymphocytes are also drug resistant to methotrexate: We isolated splenic lymphocytes from aged-matched wild type C57BL/6 mice and C57BL6.1pr and C57BL.gld. Splenocytes from C57BL/6 lpr or gld animals were isolated, red cells depleted, and single cell suspensions prepared. Cells were cultured in the absence or presence of 5×10^−8 M methotrexate for 18 or 32 hours. Cells were harvested and viability was determined by flow cytometric analysis and confirmed with trypan blue exclusion.

L1210 [3] = assay: Analysis of DNA fragments after methotrexate treatment; type: cell-based; conditions: 10^-8 M methotrexate, 24 hours
Experimental: (§2) Additionally, L1210 and L1210/DDP cells were treated with 10^-8 M methotrexate for 24 hours. […] The forward scatter low populations took up ethidium bromide differentially. The L1210 cells took up a moderate amount. […] This latter phenotype—loss in forward scatter and membrane permeability with no “DNA laddering”—is the hall mark of oncosis.

L1210/DDP = assay: as above; type: cell-based; conditions: 10^-8 M methotrexate, 24 hours
Experimental: as §2

MDR cells = assay: Inhibition of lysosomal UCP translocation; type: cell-based
Experimental: MDR cells, which are plasma membrane UCP negative and lysosomal UCP positive were treated with tunicamycin. […] These same cells were treated with tunicamycin and an-anti-UCP2 antibody.

[4] = 5-FU that is taken up by the cell; cited from earlier work
L1210DDP [5] = conditions: graded concentrations of sodium acetate
Experimental: (§3) Sodium Acetate as a mitochondrial modifying agent was examined. L1210 or L1210DDP cells were cultured in the presence of graded concentrations of sodium acetate in the medium. Cells were stained with Jo2.2, a fluorescein conjugated anti-Fas antibody, or an isotype control. Cell surface staining was measured flow cytometrically. The percentage of mean fluorescence intensity over the isotype control was plotted.

L1210 [6] = conditions: graded concentrations of sodium acetate
Experimental: as §3

B16 melanoma cells [7] = conditions: increasing concentrations of sodium acetate
Experimental: B16 cells were cultured in the in the presence of different concentrations of sodium acetate and Fas expression was measured.
B16 cells also were cultured in the presence of different concentrations of sodium acetate and Fas expression was measured.

B16 melanoma cells [8] = conditions: increasing concentrations of sodium acetate; remark: listed apart in the source
Experimental: Again cells were cultured in the presence of varying concentration of sodium acetate.

L1210DDP [9] = tested on: L1210DDP
Source text: (§4) The effects of acetate on susceptibility to Fas-dependent cell death were also examined.

L1210 [10] = tested on: L1210
Source text: as §4

[11] = metabolite formed from 5-FU; cited from earlier work

With `COc1cccc2c1C(=O)c1c(O)c3c(c(O)c1C2=O)C[C@@](O)(C(=O)CO)C[C@@H]3O[C@H]1C[C@H](N)[C@H](O)[C@H](C)O1` [adriamycin] the Fas expression (L1210 DDP) was “induced” and the Fas expression (L1210 [1]) was “increased”.

For `CN(Cc1cnc2nc(N)nc(N)c2n1)c1ccc(C(=O)N[C@@H](CCC(=O)O)C(=O)O)cc1` [methotrexate], the “susceptibility to methotrexate-induced apoptosis” value [2] was “decreased susceptibility”, the “DNA laddering (nucleosome sized fragments)” value (L1210 [3]) was “produced a ladder of nucleosome sized fragments indicative of apoptosis” and the “DNA laddering (nucleosome sized fragments)” value (L1210/DDP) was “did not”.

For tunicamycin, the “localization of intracellular UCP” value (MDR cells) was “shift in the intracellular UCP from the lysosome and mitochondria to the plasma membrane”.

For `O=c1[nH]cc(F)c(=O)[nH]1` [5-FU, 5-Fluorouracil], the half-life in vivo [4] is given as “about 18 minutes”.

In the case of `CC(=O)[O-].[Na+]` [sodium acetate], the “cell surface Fas expression” value (L1210DDP [5]) is reported as “increases cell surface Fas expression”, the “cell surface Fas expression” value (L1210 [6]) is reported as “increases cell surface Fas expression” and the “levels of cell surface Fas” value (B16 melanoma cells [7]; non-permeabilized B16) is reported as “increased”. For the same molecule, the “levels of intracellular Fas” value (B16 melanoma cells [7]; permeabilized B16) was “declined”, the glucose oxidation (B16 melanoma cells [8]) was “decreased” and the glucose utilization (B16 melanoma cells [8]) was “decreased”. For the same molecule, the “susceptibility to Fas-dependent cell death” value (L1210DDP [9]) was “resulted in susceptibility to Fas-dependent cell death” and the “susceptibility to Fas-dependent cell death” value (L1210 [10]) was “resulted in susceptibility to Fas-dependent cell death”.

In the case of `NCC(F)C(=O)O` (stereo not drawn) [2-fluoro-β-alanine (FBAL), 2-fluoro-β-alanine], the toxicity [11] is given as “neurotoxic and cardiotoxic”.

In the case of `CN[C@@H]1C[C@H]2O[C@@](C)([C@@H]1OC)n1c3ccccc3c3c4c(c5c6ccccc6n2c5c31)C(=O)NC4` [staurosporin], the Fas expression (L1210 DDP) is reported as “induced” and the Fas expression (L1210 [1]) is reported as “increased”.
